Data as given in PubChem BioAssay AID463074 (Broad Institute, 2010).
Calls of active or inactive are those of the source.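 The calls were made as follows: active = AC50 no more than tenfold above the top dose tested, or full inhibition at every dose with a flat fit (cut at about 19 µM in these data); inconclusive = flat curve fit with inhibition between 30% and 70%, or poor fit; inactive = AC50 more than tenfold above the top dose tested.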

Test system: HMLE_sh_eGFP viability, CellTiter-Glo luminescence, 72 h
Experiment: cytotoxicity in HMLE control line with eGFP shRNA, dose response, counter-screen for HMLE_sh_ECad selective toxicity project, cell-based, HMLE_sh_eGFP, luminescence (AID 463074);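 also: counterscreen control line to flag general toxicity for the HMLE_sh_ECad screen; potency for loss of viability as luminescence drops below DMSO wells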

`O=c1c2ccccc2oc2ccc(C#CC3(O)CCCCC3)cc12` was tested, and the AC50 was 7.11 µM.

`O=C(Nc1ccccc1)NN(C(=O)CCl)c1ccccc1` was tested, and the AC50 was 6.45 µM.

Compound `CCN(CC)C1CCN(C(=O)c2cc(COc3ccc(F)cc3Cl)on2)C1` (configuration not stated) has an AC50 of 15.4 µM.

In the case of `O=C(Nc1ccc([N+](=O)[O-])cc1)Nc1ccc(OC(F)F)c(Cl)c1`, the AC50 was 2.09 µM.

In the case of `COc1ccc(NC(=O)c2ccc(COc3ccccc3Br)o2)c(OC)c1`, the AC50 was 3.67 µM.

`Nc1cc(-c2ccc(OC(F)(F)F)cc2)nn1-c1ccc(Cl)c(Cl)c1` showed an AC50 of 5.83 µM.

In the case of `C[C@@H]1CN([C@@H](C)CO)C(=O)c2cc(NC(=O)Nc3ccc(F)cc3)ccc2O[C@@H]1CN(C)Cc1ccc(Oc2ccccc2)cc1`, the AC50 was 3.48 µM.

Work on `CCCc1[nH]c2ccc(C#N)cc2c1CCC` yielded an AC50 of 4.14 µM.

`c1ccc(-c2c3ccccc3nc3[nH]c4ccccc4c23)cc1` was tested, and the AC50 was 2.95 µM.

For `CCN(Cc1ccccc1)c1ccc(/C=N/N=C(N)N)cc1`, the AC50 was 3.16 µM.

For `CC(NC(=O)COC(=O)c1cc(NS(=O)(=O)c2ccc(Cl)c([N+](=O)[O-])c2)ccc1O)C1CC2CCC1C2` (configuration not stated), the AC50 was 3.52 µM.

In the case of `COc1ccc(-c2cc(-c3nc4ccccn4c3NCc3ccccc3)ccc2OC)cc1`, the AC50 was 1.96 µM.

For `CN(C)CCn1c2ccccc2c2nc3ccc([N+](=O)[O-])cc3cc21`, the AC50 was 15.6 µM.

With `COC(=O)C1=C(C)N(Cc2ccccc2)C(=NCc2ccccc2)N[C@H]1c1cccc(C(F)(F)F)c1` the AC50 was 3.68 µM.

`CCOC(=S)SCC(=O)Nc1nc(-c2ccc(Br)cc2)cs1` was tested, and the AC50 was 3.54 µM.

In the case of `O=C1C2C3C=CC(C4CC34)C2C(=O)N1/N=C/c1ccc(-c2ccc(F)cc2[N+](=O)[O-])o1` (configuration not stated), the AC50 was 1.21 µM.

Compound `Oc1ccc(/C=N/Nc2ccc(C(F)(F)F)cn2)c(O)c1` has an AC50 of 6.58 µM.

In the case of `Cc1ccccc1CS(=O)(=O)c1ncc(Cl)c(C(=O)Nc2ccc(F)cc2)n1`, the AC50 was 4.11 µM.

`Cc1nn(CCc2nn[nH]n2)c2nc(-c3ccc(C4CCCCC4)cc3)cc(C(F)(F)F)c12` was tested, and the AC50 was 2.7 µM.

Work on `COc1cccc(C2C3=C(N=c4s/c(=C\c5cccc(O)c5)c(=O)n42)c2ccccc2CC3)c1OC` (configuration not stated) yielded an AC50 of 8.57 µM.

Work on `Cc1cccc(N2CCN(C(=S)Nc3ccc4nc(N5CCN(C)CC5)cc(C)c4c3)CC2C)c1` (configuration not stated) yielded an AC50 of 7.35 µM.

Compound `O=c1[nH]c(CN2CCN(c3ccccn3)CC2)nc2c(Br)cc(Br)cc12` has an AC50 of 10.3 µM.

`Cc1ccc(-n2c(-c3cccs3)nc3ccccc3c2=O)cc1` was tested, and the AC50 was 3.36 µM.

`O=C(COC(=O)/C=C/C(=O)OCC(=O)Nc1ccccc1F)Nc1ccccc1F` showed an AC50 of 9.61 µM.

For `COc1ccc(/C=C/C(=O)Nc2ccc(C34CC5CC(CC(O)(C5)C3)C4)cc2)cc1OC`, the AC50 was 0.631 µM.

In the case of `CCCOc1ccccc1-n1sc2c(c1=S)-c1cc(OC)cc3c1N(C(=O)C3=O)C2(C)C`, the AC50 was 9.1 µM.

For `CC(=O)O[C@H]1[C@H]2O[C@]23[C@@H]2CC[C@]4(O)C[C@@H](O)CC[C@]4(C)C2CC[C@]3(C)[C@H]1c1ccc(=O)oc1` (some centres not stated), the AC50 was under 0.16 µM.

`CC(=O)Nc1ccc(SC[C@H](C)CN2CC[C@H](C(C)(C)C)CCC2=O)cc1` showed an AC50 of 4.98 µM.

In the case of `COc1cccc(-c2cc3nc4c(c(N5CCC6(CC5)OCCO6)n3n2)CCCC4)c1`, the AC50 was 9.81 µM.

`COc1ccc(C(=O)/C=C/c2ccc(OC)c(Cn3nnc4ccccc43)c2)cc1` showed an AC50 of 6.82 µM.

With `CCn1c(=O)c(C(=O)NCCc2ccccc2)c(O)c2ccccc21` the AC50 was 5.62 µM.

For `O=C(Nc1ccc(Cl)c(Cl)c1)Nc1ccccc1NS(=O)(=O)c1cccs1`, the AC50 was 13.6 µM.

Compound `CC1(C)C[C@H](O)[C@]2(CO)[C@H](O)C[C@]3(C)C(=CCC4[C@@]5(C)CC[C@H](O)C(C)(C)C5CC[C@]43C)[C@@H]2C1` (some centres not stated) has an AC50 of 3.63 µM.

`CCOC(=O)c1[nH]c(C)c(C(=O)OCc2ccccc2F)c1C` gave an AC50 of 1.03 µM.

`Oc1ccc(N=Nc2ccc3ccccc3c2)cc1` was tested, and the AC50 was 7.43 µM.

`CCn1c(C)c(C)c2cc(C(=O)N3CCN(c4cccc(C)c4C)CC3)ccc21` was tested, and the AC50 was 5.44 µM.

In the case of `O=C(CN1CCCC1)Nc1ccc(Cl)cc1C(=O)c1ccccc1`, the AC50 was 15.3 µM.

`CCn1c(=O)c([N+](=O)[O-])c(Cl)c2ccccc21` gave an AC50 of 3.56 µM.

`CCOC(=O)c1c(-c2ccc(Cl)cc2)csc1NC(=O)CNCc1ccco1` gave an AC50 of 5.2 µM.

`Cc1ccc(C)c(NC(=S)NC(NC(=O)Cc2cccc3ccccc23)C(Cl)(Cl)Cl)c1` (configuration not stated) gave an AC50 of 1.97 µM.

In the case of `Cc1cc([N+](=O)[O-])ccc1-c1ccc(C2Nc3ccccc3C(=O)N2O)o1` (configuration not stated), the AC50 was 6.45 µM.

With `S=c1nc[nH]c2nc[nH]c12` the AC50 was 1.52 µM.

`Cc1cc2nnc(SCC(=O)NCc3ccco3)n2c2ccccc12` was tested, and the AC50 was 4.5 µM.

`CCCCn1c(=O)c(C(=O)NCc2ccc(Cl)cc2)c(O)c2ccccc21` was tested, and the AC50 was 7.8 µM.

In the case of `COc1ccc(OC)c(NC(=O)NNC(=O)COc2ccc(-c3ccccc3)cc2)c1`, the AC50 was > 19.5 µM (inactive).

With `Cn1nnnc1Sc1ncnc2scc(Br)c12` the AC50 was 6.78 µM.

Work on `C/C(=N\Nc1ccccc1)c1c(O)n(Cc2ccccc2)c(=O)[nH]c1=O` yielded an AC50 of 1.9 µM.

`Cc1noc(C)c1CSc1nc2ccccc2nc1NS(=O)(=O)c1ccc(Cl)cc1` showed an AC50 of 1.79 µM.

Compound `CC(Nc1nc(-c2ccc(Cl)cc2)cs1)c1nc2cc(Cl)c(N3CCCCC3)cc2n1CCOCCO` (configuration not stated) has an AC50 of 1.97 µM.

With `Cc1ccnc2c1ccc1c(C)ccnc12` the AC50 was 0.937 µM.

For `O=C(CCC(=O)N1CCN(c2ccc(O)cc2)CC1)c1ccc(Br)cc1`, the AC50 was 2.64 µM.

Work on `O=C(NCc1ccc2c(c1)OCO2)c1nc(S(=O)(=O)Cc2ccccc2F)ncc1Cl` yielded an AC50 of 6.81 µM.
